{
  "source": "patent US11326167B2",
  "about": "“Methods and compositions for treating atherosclerosis” (YALE UNIVERSITY, priority 2016, dated 2022)",
  "key": {"[1]": {"system": "primary human aortic smooth muscle cells (HASMCs)", "assay": "Immunoblot of p-Smad2 and SM-calponin in control and FRS2α knockdown HASMCs treated with SB431542", "format": "cell-based", "conditions": "SB431542 10 μM", "from_the_text": "FIGS. 2A-2F are images and plots showing that FRS2α knockdown increases smooth muscle marker gene expression via the TGFβ pathway in primary human aortic smooth muscle cells (HASMCs). […] Blots are representative of four independent experiments. […] R-actin was used for sample loading normalization. […] FIGS. 2D-2F show immunoblots of smooth muscle markers, phosphorylated Smad2 (p-Smad2), and TGFβR1 expression in control and FRS2α knockdown HASMCs treated with SB431542 ([…]), TGFβR2 or Smad2 shRNA lentiviruses. Blots are representative of three independent experiments.\nThe TGFβR1 kinase inhibitor SB431542 (Sigma S4317) was reconstituted in DMSO (Sigma D2650) and used at a final concentration of 10 μM in cell culture.\nMouse Tgfbr1 and Tgfbr2 shRNA lentiviral constructs were purchased from Sigma. Human FGFR1, human Smad2 and human TGFβR2 shRNA lentiviral constructs were purchased from Sigma and human FRS2α shRNA lentiviral construct was purchased from Open Biosystems. For the production of shRNA lentivirus, 3.7 μg of A8.2, 0.2 μg of VSVG, and 2.1 μg of pLKO.1 carrying the control, FGFR1, FRS2α, Smad2, or TGFβR2 shRNA were co-transfected into 293T cells using X-tremeGENE 9 DNA Transfection Reagent (Roche 06365787001). Forty-eight hours later the medium was harvested, cleared by 0.45 μm filter (PALL Life Sciences PN4184), mixed with polybrene (5 μg/ml) (Sigma H9268), and applied to cells. […]"}, "Apoe^−/− mice": {"system": "Apoe^−/− mice", "assay": "Oil Red O atherosclerotic lesion area after 7C1-siTgfbr and/or rapamycin, 4 months of high fat diet", "format": "in vivo, mouse", "from_the_text": "FIGS. 45A-45B are a graph and a series of images showing that 7C1-siTgfbr and rapamycin suppress atherosclerosis lesion development in Apoe^−/− mice after 4 months of high fat diet. FIG. 45A: Time frame of 7C1-siTgfbr1/Tgfbr2 lipid nanoparticle and rapamycin injections. FIG. 45B: Representative photomicrographs of Oil Red O-stained atherosclerotic lesions in PBS, 7C1-siLuciferase, DMSO, Rapamycin, or 7C1-siTgfbr treated mice.\nFIG. 46 is a histogram illustrating the quantification of atherosclerotic lesions from FIG. 45B. Lesion area quantification. % Lesion area is the lesion area/total area of aorta. All data shown as mean±SD. (***p<0.001; one-way ANOVA with Newman-Keuls post hoc test for multiple comparison correction).\nApoe^−/− and Frs2^SMCKO/Apoe^−/− male mice were fed a Western diet (40% kcal % Fat, 1.25% Cholesterol, 0% Cholic Acid) for 8 or 16 weeks (Research Diets, product #D12108) starting at the age of 8 weeks. After 8 or 16 weeks of being fed a high-fat diet, mice were anesthetized and euthanized. […] The lesions located in the aorta, aortic roots and abdominal aorta were analyzed using Oil Red 0 staining. […] The surface lesion area was quantified with ImageJ software (NIH). […]\nFIG. 46 is a histogram illustrating the quantification of atherosclerotic lesions from FIG. 45B. […]"}, "[2]": {"system": "Apoe^−/− and Frs2α^iECKO/Apoe^−/− mice", "assay": "Tolerability of 7C1-let-7 injections: body weight, blood counts, serum lipids, organs, liver function, skin", "format": "in vivo, mouse", "conditions": "after 16 weeks on high cholesterol diet", "from_the_text": "FIGS. 24A-24E are a series of graphs showing that 7C1-let-7 mimics treatment have no effect on mouse body weight and serum lipid profile. FIG. 24A: Time frame of gene inactivation and 7C1 lipid nanoparticle injections. FIG. 24B: Serum triglycerides, total cholesterol, and HDL-C levels from Apoe^−/− and Frs2^iECKO/Apoe^−/− mice after 16 weeks on a high cholesterol diet (NS: not significant by one-way ANOVA with Newman-Keuls post-hoc test). FIG. 24C: Individual body weights in each group were measured every week. FIGS. 24D-24E: qPCR analysis of let-7b and Tgfbr1 expression in lung endothelial cells after treatment with 7C1-let-7 particles. All data shown as mean±s.d. (*p<0.05; **p<0.01; ***p<0.001 compared with Luciferase; one-way ANOVA with Newman-Keuls post hoc test for multiple comparison correction). N=4-6 mice per group.\nSerum was obtained through centrifugation of the blood for 2 min at 10,000 rpm at 4° C. and stored at −80° C. until each assay was performed. […]\nA decline in let-7 miRs expression has been previously linked to activation of TGFβ signaling (Chen et al., 2012, Cell reports 2: 1684-1696; Chen et al, 2014 Science signaling 7, ra90). […] Measurements of the following were taken from mice in each group: body weight, complete blood counts, skin pictures, serum lipid profiles, organ weight, and whole aorta oil red-O staining and quantification (FIGS. 24C, 25, 23, 24B, 27, and 29)."}},
  "data": [
    {"compound": "NC(=O)c1ccc(-c2nc(-c3ccc4c(c3)OCO4)c(-c3ccccn3)[nH]2)cc1", "note": "[SB431542]", "values": [
      {"measurement": "FRS2α knockdown-induced increase in SM-calponin levels", "setting": "[1]", "value": "effectively attenuated"},
      {"measurement": "FRS2α knockdown-induced increase in p-Smad2 levels", "setting": "[1]", "value": "effectively attenuated"}
    ]},
    {"compound": "CO[C@H]1C[C@@H]2CC[C@@H](C)[C@@](O)(O2)C(=O)C(=O)N2CCCC[C@H]2C(=O)O[C@H]([C@H](C)C[C@@H]2CC[C@@H](O)[C@H](OC)C2)CC(=O)[C@H](C)/C=C(\\C)[C@@H](O)[C@@H](OC)C(=O)[C@H](C)C[C@H](C)/C=C/C=C/C=C/1C", "note": "[rapamycin]", "values": [
      {"measurement": "reduction in atherosclerotic lesion (% lesion area = lesion area/total area of aorta)", "setting": "Apoe^−/− mice", "value": 58, "unit": "%"}
    ]},
    {"compound": "mi-let-7bH: heavily 2′-O-methyl modified double stranded let-7b miRNA mimic, 5p UGAGGuAGuAGGUUGUGUGGUU, 3p cuAuAcAAccuAcuGccuuccc", "values": [
      {"measurement": "serum triglycerides, total cholesterol and HDL cholesterol levels (serum lipid profile)", "setting": "[2]", "value": "similar"}
    ]},
    {"compound": "mi-let-7bL: lightly 2′-O-methyl modified double stranded let-7b miRNA mimic, 5p UGAGGuAGuAGGUUGUGUGGUU, 3p CuAuAcAACCuACUGCCUUCCC", "values": [
      {"measurement": "serum triglycerides, total cholesterol and HDL cholesterol levels (serum lipid profile)", "setting": "[2]", "value": "similar"}
    ]}
  ]
}
